Measurements from the OPERA property sets (Mansouri et al. 2018).

Conditions: not given
Compound O=C1CCCCCCC1 has a boiling point of 196 °C, a log10 vapour pressure (mmHg) of -0.389 and a melting point of 29 °C.
O=C(c1ccccc1)C1CCCCC1 showed a melting point of 56 °C.
Compound C=C(C)CCC(=C)C has a boiling point of 114 °C and a melting point of -75.6 °C.
Work on ICc1ccccc1 yielded a log10 vapour pressure (mmHg) of -0.903 and a melting point of 24.5 °C.
CCOC=C(C#N)C#N gave a melting point of 66 °C.
With CN(C)C(=O)SCCCCOc1ccccc1 the log10 vapour pressure (mmHg) was -5.9 and the melting point was 40.5 °C.
Work on COC(C)OC yielded a boiling point of 64.5 °C, a log10 vapour pressure (mmHg) of 2.23 and a melting point of -113 °C.
Compound C[C@H]1CC=CCC1 has a boiling point of 103 °C and a melting point of -116 °C.
Compound CCOC(=O)C1(c2ccccc2)CCN(CCc2ccc(N)cc2)CC1 has a melting point of 83 °C.
OCc1ccc(Cl)c(Cl)c1 gave a boiling point of 150 °C and a melting point of 36 °C.
For CCc1cc(Cc2cc(CC)cc(C(C)(C)C)c2O)c(O)c(C(C)(C)C)c1, the melting point was 120 °C.
With O=C1c2ccccc2-c2ccc3c4c(ccc1c24)-c1ccccc1C3=O the log10 Koc (L/kg) was 4.28 and the melting point was 385 °C.
Work on NC(=O)C1(N2C(=O)c3cccc(Cl)c3C2=O)CCCCC1 yielded a melting point of 194 °C.
Work on CC(C)CCC[C@@H](C)[C@H]1CC[C@@H]2[C@@H]3CC[C@H]4CCCC[C@]4(C)[C@H]3CC[C@@]21C yielded a melting point of 76 °C.
CCNc1ccccc1 showed a boiling point of 203 °C, a log10 Henry constant (atm·m³/mol) of -5.01 and a log10 vapour pressure (mmHg) of -0.69. The melting point was -63.5 °C and the ready biodegradability was “not readily biodegradable”.
With CC(C)(N=C(O)C(Br)C(C)(C)C)c1ccccc1 (stereo not given) the melting point was 180 °C.
For NC(=O)Nc1cccc(C(F)(F)F)c1, the log10 Koc (L/kg) was 1.98.
CCCCC(CC)C(C)C (stereo not given) showed a boiling point of 163 °C.
For CCCC(CCC)C(=O)O, the boiling point was 222 °C and the ready biodegradability was “readily biodegradable”.
O=C1C(=O)c2cccc3cccc1c23 showed a melting point of 261 °C.
For CC=Cc1cccc(OC)c1O, the boiling point was 268 °C and the melting point was 81 °C.
In the case of CCOc1ccc([Si](C)(C)CCCc2ccc(F)c(Oc3ccccc3)c2)cc1, the log10 vapour pressure (mmHg) is reported as -7.73.
Work on CCCCCCc1ccc2c(c1)CCC2 yielded a boiling point of 292 °C and a melting point of -34 °C.
C#CCCCCCCCCCC gave a boiling point of 215 °C and a melting point of -19 °C.
With Nc1c(Cl)c(Cl)c(Cl)c(Cl)c1Cl the log10 Koc (L/kg) was 4.62, the melting point was 235 °C and the ready biodegradability was “not readily biodegradable”.
With CN(C)c1ccc(-c2ccc(N(C)C)cc2)cc1 the melting point was 194 °C.
Compound C1CC2CCC1C2 has a boiling point of 105 °C and a melting point of 87.5 °C.
With COc1ccccc1C#N the boiling point was 256 °C and the melting point was 24.5 °C.
In the case of O=c1ccc(=O)[nH][nH]1, the log10 Koc (L/kg) is reported as 0.45, the melting point is reported as 306 °C and the ready biodegradability is reported as “readily biodegradable”.
With Cc1cc(O)cc(C)c1Cl the boiling point was 246 °C and the melting point was 115 °C.
Work on FC(F)=C(F)C(F)(F)C(F)(F)C(F)(F)C(F)(F)F yielded a boiling point of 57 °C.
For COc1cc(C(=O)O)ccc1O, the melting point was 212 °C and the ready biodegradability was “readily biodegradable”.
With CC(C)=C(C)Cl the boiling point was 96 °C.
For O=C1CSC(=S)N1c1ccccc1, the melting point was 194 °C.
Work on C[C@@H]1CC[C@@]2(OC1)O[C@H]1C[C@H]3[C@@H]4CC[C@H]5C[C@@H](O)CC[C@]5(C)[C@H]4CC(=O)[C@]3(C)[C@H]1[C@@H]2C yielded a melting point of 266 °C.
In the case of CSc1ccc(O)cc1C, the ready biodegradability is reported as “not readily biodegradable”.
With O=C(c1ccccc1)c1cccc(C(F)(F)F)c1 the melting point was 52.5 °C.
In the case of Oc1cc(Cl)c(Br)cc1Cl, the ready biodegradability is reported as “not readily biodegradable”.
Work on Nc1ccc(F)c([N+](=O)[O-])c1 yielded a melting point of 97.5 °C.
Work on ClC(Cl)[Si](Cl)(Cl)Cl yielded a boiling point of 145 °C.
With CC(C)SSC(C)C the boiling point was 177 °C and the melting point was -69 °C.
C=CC(OCC)OCC showed a boiling point of 124 °C.
Work on Cc1nonc1C yielded a boiling point of 156 °C and a melting point of -7 °C.
Compound FC(F)Br has a boiling point of -15.5 °C and a melting point of -145 °C.
For N#CCCN(CCOC(=O)c1ccccc1)c1ccc(N=Nc2ccc([N+](=O)[O-])cc2)cc1, the ready biodegradability was “not readily biodegradable”.
In the case of O=[N+]([O-])c1ccc(Cl)c(C(F)(F)F)c1, the boiling point is reported as 232 °C and the melting point is reported as 22 °C.
Compound FC(F)(F)C(F)(F)C(F)(F)C(F)(F)C(F)(F)C(F)(F)C(F)(F)Br has a boiling point of 118 °C.
With C=C(C)[C@@H]1CC[C@]2(C)CC[C@]3(C)[C@H](CC[C@@H]4[C@@]5(C)CC[C@H](O)C(C)(C)[C@@H]5CC[C@]43C)[C@@H]12 the melting point was 216 °C.
Work on C=CCc1ccc(O)c(OC)c1 yielded a boiling point of 253 °C, a log10 vapour pressure (mmHg) of -1.65 and a melting point of -9.1 °C.
CCc1ccccc1Cl showed a boiling point of 178 °C and a melting point of -82.7 °C.
C=C(C)C#N gave a boiling point of 90.3 °C, a log10 vapour pressure (mmHg) of 1.85 and a melting point of -35.8 °C. For the same compound, the ready biodegradability was “readily biodegradable”.
In the case of CC(O)C(C)Cl (stereo not given), the boiling point is reported as 139 °C.
In the case of CC(/C=C/C=C(C)/C=C/[C@@]1(O)C(C)(C)CCC[C@@]1(C)O)=C\C=C\C=C(C)\C=C\C(=O)O, the melting point is reported as 213 °C.
Work on CCCCC(CC)COC(=O)c1ccc(C(=O)OCC(CC)CCCC)cc1 (stereo not given) yielded a boiling point of 383 °C, a log10 Koc (L/kg) of 4.16 and a melting point of -48 °C.
In the case of COc1cc(C)cc(C)c1, the boiling point is reported as 194 °C.
For CCC(C)C(C)(C)C (stereo not given), the log10 biodegradation half-life (days) was 0.845.

Same assay, conditions: fish
CCc1ccc(-c2ccccc2)cc1 showed a log10 BCF of 2.82 and a log10 biotransformation half-life (days) of 0.06.
OCc1ccc(Cl)c(Cl)c1 showed a log10 BCF of 0.54.
In the case of CCNc1ccccc1, the log10 BCF is reported as 1.11 and the log10 biotransformation half-life (days) is reported as -0.65.
Nc1c(Cl)c(Cl)c(Cl)c(Cl)c1Cl showed a log10 BCF of 2.71.
